Experimental findings from ChEMBL document CHEMBL1201862, “PubChem BioAssay data set” (2004) are described below.

Holding throughout (assay): NCI-60 cell line screen, 48 h
Assay [1] relates to SNB-78.
Assay [2] relates to HOP-18.
For assay [3], the system named is M19-MEL.
Assay [4] concerns DMS-114.
For assay [5], the system named is LXFL 529.
Assay [6] has as its system DLD-1.
Assay [7] has as its system XF498.
In assay [8] the test system is BT-549.

Structures are written as SMILES.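 Assay format: 96-well plates, 48-hour exposure. GI50 marks 50% less growth.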 Active and inactive are the calls of the source. No stated cut-off is given here; in the data, active = GI50 up to about 1.1 µM and inactive = higher. Residues, ends and D or L forms follow the SMILES beside them. *: point of attachment. Boc = CC(C)(C)OC(=O)*; OBn = c1ccc(CO*)cc1

As to `CC1=N/C(=C\c2cccc([N+](=O)[O-])c2)C(=O)O1`, the GI50 was 86.1 µM (inactive) in assay [1]; > 100 µM (inactive) in assay [2]; > 100 µM (inactive) in assay [3]; > 100 µM (inactive) in assay [4]; > 100 µM (inactive) in assay [5]; > 100 µM (inactive) in assay [6].
`Cc1c2n(c3ccccc13)CC1C2N(C)OC1(C)C` (centres undefined): the GI50 in assay [7], in assay [1], in assay [3], in assay [4] and in assay [6] was > 100 µM (inactive) each time.
In the case of `C=C1C(=O)[C@@]23CC[C@@H]4[C@@]5(C)CCC[C@@]4(OC5=O)[C@@]2(C)CC[C@@H]1C3`, in assay [8], the GI50 is 1.3 µM (inactive).
Same read-out and setting: next, `Cc1ccc2nc(N/N=C/c3sccc3C)cc(C)c2c1`: > 100 µM (inactive).
The same measure, in the same setting: next, `NNC(=O)CCC(NS(=O)(=O)c1ccc(Cl)cc1)C(=O)NN` (centres undefined): > 100 µM (inactive); `CSc1nc2c(c(=O)[nH]1)N=C(c1ccc(Cl)cc1)CC(c1ccccc1)N2` (centres undefined): 19.7 µM (inactive).
Consider `COc1ccc(CCn2c(=O)c3ccccc3n(C)c2=O)cc1`, for which the GI50 in assay [7] was 37.2 µM (inactive); in assay [1] it was 36.5 µM (inactive); in assay [3], 19.3 µM (inactive); in assay [4] it was 11.2 µM (inactive); in assay [5], 26.1 µM (inactive); in assay [6], 28.6 µM (inactive).
Regarding `Fc1ccc(C(OCCN2CC3CC2CN3CCCc2ccccc2)c2ccc(F)cc2)cc1` (centres undefined), the GI50 in assay [8] is 11.8 µM (inactive).
As to `CC(=O)OCC1OC(n2c(C)c(/N=N/c3ccc(C)cc3)c(C)c(C#N)c2=S)C(OC(C)=O)C(OC(C)=O)C1OC(C)=O` (centres undefined), the GI50 in assay [8] was > 100 µM (inactive).
Same read-out and setting: next, `COC(=O)C1(Cc2ccccc2)Cc2ccccc2C1O` (centres undefined): > 100 µM (inactive).
The same measure, in the same setting: as for `Cn1cccc1-c1ccc(-c2ccc(CO)[se]2)[se]1`, the figure is 20.2 µM (inactive).
For the compound `O=C(NS(=O)(=O)c1ccccc1)C(Cc1ccccc1)C(Cc1ccccc1)C(=O)NS(=O)(=O)c1ccccc1` (centres undefined), the GI50 in assay [2], in assay [3], in assay [4], in assay [5] and in assay [6] was > 100 µM (inactive) each time.
On to `CC(C)=CCOc1cc(NC(=S)c2ccsc2C)ccc1Cl`, for which the GI50 in assay [8] was 23.6 µM (inactive).
On the same count and under the same terms, next, `COc1nc2ncc([C@@H](O)[C@H](O)CO)nc2c(=O)n1C`: > 100 µM (inactive); `CC[C@]12C=CCN3CCC4(c5cc(/N=N/c6ccccc6)c(OC)cc5N(C)[C@H]4[C@@](O)(C(=O)OC)[C@@H]1OC(C)=O)[C@@H]32` (some centres undefined): 17.1 µM (inactive).
Still for that read-out and setting: as for `COc1ccc(/N=N/C(=N/NC(=O)c2ccccc2)c2ccc(N(CCC#N)CCC#N)cc2C)cc1`, the figure is 52.4 µM (inactive).
For `CCN(CC)CCC(=O)/C=C/c1ccccc1`, in assay [8], the GI50 was 6.9 µM (inactive).
Turning to `CCC1C(=O)OCc2c1cc1n(c2=O)CCC12OCCO2` (centres undefined), the GI50 in assay [7], in assay [1], in assay [3], in assay [4], in assay [5] and in assay [6] was > 100 µM (inactive) throughout.
For `Cn1c2ccccc2c(=O)c2cccc(C(=O)NCC(=O)O)c21`, the GI50 in assay [8] is > 100 µM (inactive).
On the same count and under the same terms, next, `O=C(/C=C/c1ccccc1)CCN1CCCCC1`: 47.1 µM (inactive).
Still for that read-out and setting: next, `CCCC(=O)OCC(COC(=O)CCC)OC(=O)CCC` [TRIBUTYRIN]: 97.3 µM (inactive).
Take `COc1ccc(Nc2nnc(-c3nsc4ccccc34)s2)cc1`: the GI50 in assay [1] is > 100 µM (inactive); in assay [2], 0.0149 µM (active); in assay [3] it was > 100 µM (inactive); in assay [4], 59.4 µM (inactive); in assay [5] it was > 100 µM (inactive).
As to `CC(C)(C)OC(=O)NCCNCCNc1ccccc1`, the GI50 in assay [8] was > 100 µM (inactive).
Still for that read-out and setting: next, `COc1cc(C2SC(=N)Nc3c2c(C)nn3C(=O)Cc2ccccc2)cc(OC)c1OC` (centres undefined): > 100 µM (inactive); `C/C(Nc1ccc(F)cc1)=C1/CCOC1=O`: > 100 µM (inactive).
The same measure, in the same setting: as for `CC[C@@]1(O)C(=O)OCc2c1cc1n(c2=O)Cc2c-1nc1ccc(O)cc1c2[Si](C)(C)C(C)(C)C` [AR-67], the figure is < 0.0157 µM (active).
Regarding `CC(=O)OCC1OC(OC2C(CSC3OC(COC(C)=O)C(OC(C)=O)C(OC(C)=O)C3OC(C)=O)OC(OC(C)=O)C(OC(C)=O)C2OC(C)=O)C(OC(C)=O)C(OC(C)=O)C1OC(C)=O` (centres undefined), the GI50 in assay [7], in assay [1], in assay [3], in assay [4], in assay [5] and in assay [6] was > 100 µM (inactive) throughout.
As to `CC(C)(C)OC(=O)NNCC(O)COc1ccccc1` (centres undefined), the GI50 in assay [8] is > 100 µM (inactive).
As to `O=S1(=O)c2ccccc2N(O)C2=NCCN21`, the GI50 in assay [1], in assay [3], in assay [4], in assay [5] and in assay [6] was > 100 µM (inactive) throughout.
For the compound `COC(=O)N/N=C(\C)CC(=O)Nc1cccc([N+](=O)[O-])c1`, the GI50 in assay [7], in assay [1], in assay [3], in assay [4], in assay [5] and in assay [6] was > 100 µM (inactive) in each case.
Take `CCOC(=O)C1(c2ccccc2)CCCNCC1` (centres undefined): the GI50 was > 100 µM (inactive) in assay [1]; > 100 µM (inactive) in assay [2]; > 100 µM (inactive) in assay [3]; > 100 µM (inactive) in assay [5]; 58.5 µM (inactive) in assay [6].
As for `Cc1ccc(S(=O)(=O)N/N=C2\C3CC4CC(C3)C2C4)cc1` (centres undefined), the GI50 in assay [8] was > 100 µM (inactive).
Regarding `Cc1ccc(S(=O)(=O)C2c3nc4ccccc4cc3-c3nc4ccccc4nc32)cc1` (centres undefined), the GI50 was > 100 µM (inactive) in assay [7]; 67 µM (inactive) in assay [1]; > 100 µM (inactive) in assay [3]; > 100 µM (inactive) in assay [4]; > 100 µM (inactive) in assay [5]; > 100 µM (inactive) in assay [6].
For `CCN1CC2=C(N=c3s/c(=C\c4ccc(Cl)cc4)c(=O)n3C2c2ccc(Cl)cc2)/C(=C/c2ccc(Cl)cc2)C1` (centres undefined), the GI50 in assay [8] was 26.4 µM (inactive).
In the case of `NS(=O)(=O)c1nnc(NSc2ccc([N+](=O)[O-])cc2)s1`, the GI50 in assay [8] is > 100 µM (inactive).
On the same count and under the same terms, next, `CC(C)N(C(=O)C12C3(C(=O)C(C)(C)C)C4C5(C#N)C3C1(C(=O)C(C)(C)C)C5C42C(=O)C(C)(C)C)C(C)C` (centres undefined): > 100 µM (inactive); `C/C=C/[C@@]1(OC(=O)c2ccccc2)C[C@@H]2CCCC[C@@H]21`: 14.9 µM (inactive).
Regarding `O=C(O)c1c[nH]c2c(ccc3ncccc32)c1=O`, the GI50 in assay [1], in assay [2], in assay [3], in assay [4], in assay [5] and in assay [6] was > 100 µM (inactive) in each case.
For the compound `Cc1ccccc1C(O)(c1nccn1C)c1nccn1C`, the GI50 in assay [8] is > 100 µM (inactive).
On the same count and under the same terms, as for `C=C1C2C[C@@H]3O[C@H]4C[C@H]5O[C@@]6(C[C@@H]7O[C@]8(C[C@H](C)[C@@H]9O[C@@H]%10CC(CO)O[C@@H]%10C[C@@H]9O8)C[C@H](C)[C@@H]7O6)C[C@H]5O[C@H]4[C@H](C)[C@H]3OC(=O)C[C@H]3CC[C@@H]4OC5[C@H]6O[C@]7(CC[C@H]8CC(=C)[C@H](CC[C@@H](C[C@H]1C)O2)O8)CC6O[C@@H]5[C@@H](O7)[C@H]4O3` (some centres undefined), the figure is < 0.0001 µM (active).
In the case of `CC1OC(OC2C(OC(=O)[C@]34CCC(C)(C)CC3C3=CCC5[C@@]6(C)C[C@H](O)[C@H](OC7OC(COC8OC(CO)C(O)C(O)C8O)C(O)C(O)C7O)[C@@](C)(C(=O)O)C6CC[C@@]5(C)C3(C)CC4)OCC(O)C2O)C(O)C(O)C1OC1OCC(O)C(O)C1O` (some centres undefined), the GI50 in assay [1], in assay [2], in assay [3], in assay [4] and in assay [6] was > 100 µM (inactive) each time.
On to `O=C(O)C1C2CCC(O2)C1C(=O)Nc1cccc2cccnc12` (centres undefined), for which, in assay [8], the GI50 was > 100 µM (inactive).
Still for that read-out and setting: next, `Nc1nc(N)c2cc(Sc3cccc(C(F)(F)F)c3)ccc2n1` [WR-159412]: 6.07 µM (inactive).
For `CN1CCn2c(Br)ccc2C1=O`, the GI50 in assay [7] is > 100 µM (inactive); in assay [1] it was > 100 µM (inactive); in assay [3] it was > 100 µM (inactive); in assay [5], > 100 µM (inactive); in assay [6], > 10 µM (inactive).
For `C/C(=N\Nc1cc(CN2CCCC2)c(-c2ccc(Cl)cc2)nn1)C(=O)O`, the GI50 in assay [8] was > 100 µM (inactive).
On the same count and under the same terms, as for `O=c1c2cnccc2cc2c3ccccc3ccn12`, the figure is 65.6 µM (inactive).
Same read-out and setting: next, `COc1ccccc1OC(=O)/C=C/c1ccccc1`: > 100 µM (inactive).
Same read-out and setting: as for `c1ccc(COC[C@H]2C3OCC([C@H](OCc4ccccc4)[C@H]3OCc3ccccc3)N2Cc2ccccc2)cc1` (some centres undefined), the figure is > 53.3 µM (inactive); as for `NNc1ncnc2cccc(Cl)c12`, > 100 µM (inactive).
Consider `CCCCCCCCCCCCCCCCCCNc1ccn(C2OC(CO)C(OP(=O)(O)OCC(O)COP(=O)(O)OCC3OC(n4cc(F)c(NCCCCCCCCCCCCCCCCCC)nc4=O)CC3O)C2O)c(=O)n1` (centres undefined), for which, in assay [8], the GI50 is > 50 µM (inactive).
The same measure, in the same setting: next, `CC(NC(=O)CNC(=O)OC(C)(C)C)C(=O)NC(Cc1ccccc1)C(=O)OCc1ccccc1` (stereo not drawn) (Boc-Gly-Ala-Phe-OBn; configuration not given here): > 100 µM (inactive); `CCOC(=O)c1cn(-c2ccc([N+](=O)[O-])cc2)c(=S)n2c1nc1ccccc12`: 35 µM (inactive).
For `O=c1cc(N2CCCC2)[nH]c(=O)n1-c1ccc(Cl)cc1`, the GI50 in assay [8] was > 100 µM (inactive).
On the same count and under the same terms, next, `O=C(Oc1cncc(Cl)c1)c1cc2ccccc2sc1=O`: 57.7 µM (inactive); `O=S(=O)(c1ccc(Br)cc1)N1CCN(S(=O)(=O)c2ccc(Br)cc2)CC1`: > 100 µM (inactive).
As for `COc1cc2cc(C(=O)N3C[C@H](CCl)c4c3cc(N)c3ccccc43)[nH]c2c(OC)c1OC`, in assay [8], the GI50 was 1.38 µM (inactive).
